“Also recorded” adds a separate entry of the source. Cf = 5(6)-carboxyfluorescein
Tests used:
E. coli strain JM83 = test: E. coli permeabilization assay (β-galactosidase leakage); type: cell-based
Experimental: The membrane permeabilizing activities of AMPs were determined using E. coli strain JM83 on the basis of β-galactosidase activity leaking from the cytoplasm, as described in detail in the electronic supplementary material. Living bacteria incubated with medium only were used as a negative control and bacteria killed by treatment with 5 µM synthetic cecropin B (Sigma-Aldrich) were used as a positive control (100% permeabilization). Before setting the perforation level of the positive control to 100%, the perforation value obtained for the negative control was subtracted from all other measurements. All assays were carried out three times, each time in triplicate. The results were presented as means ± s.d. (n = 3) based on statistical analysis using Student's t-test. […]
i) Peptide synthesis and modification.
The peptide sequences shown in Tabl es S1 an d S4 were selected according to their repo rted structural and functional properties, synthesized and purified to >95%. […]
The membran e p ermeabilizing activities of AMPs were determined using E. coli strain JM83 on the basis of β-gal actosidase activit y leakin g from the c ytoplasm. […] The samples were incubated at 37°C for 90 min and the absorbance was measured at 405 nm , which is proportional to the amount of released β-gal act osidase. […]

E. coli strain D22 = test system: E. coli strain D22; parameters: method as in PMID 9219367; details: E. coli strain D22, which has a defective cell envelope; ref [46]; cited from earlier work
From the text: In the original report, the authors used E. coli strain D22, which has a defective cell envelope.

E. coli JM83 cells = test: Atomic force microscopy imaging of bacterial cells; type: cell-based; details: 20 µM abaecin, 1.5 h, 37°C
Experimental: Bacteria were prepared for imaging as previously described (see electronic supplementary material). The data were analysed with NANOSCOPE […] software v. 1.40 (Veeco, USA). Three fields on each mica disc were imaged. Three-dimensional images and section profiles were prepared using WSXM v. 5.0 software. The roughness values were measured over the entire bacterial cell surface on 3 × 3 µm^2 areas. The average surface root mean square (RMS) roughness was calculated from 25 fields (300 × 300 nm^2). The data were analysed using […] v. 6 (StatSoft, Inc., Tulsa, OK, USA). Statistical significance was determined by ANOVA (Tukey's honestly significant difference test). […]
5 μM h ymenopt aecin. […] Th e cell surface was imaged in Anal ytical Labo rator y, Facult y of Chemistry, UMCS, Lublin, Poland using a NanoScope V AFM (Veeco, USA. All measurements were carri ed out in “Peak Force QNM” mode usin g an NSG 30 silicon tip with a spring constant of 20 N/m (NT-MDT, Russia). The data were an al yzed wi th Nanoscope Anal ysis software v1.40 (Veeco, USA). Three fields on each mica disk were imaged. Three dimensional images and section profiles were prepared using WSxM v5.0 software. The roughness values were measured over the entire bacterial cell surface on 3×3 µm2 areas. The average surface root-mean-square (RMS) roughness was calculated from 25 fields (300×300 nm2). […]

abaecin: proline-rich peptide abaecin, species version not specified at the place (Cf-FVPYNPPRPGQSKPFPSFPGHGPFNPKIQWPYPLPNPGH-NH2)
perforation of the bacterial envelope, abaecin alone (E. coli strain JM83; 20 µM abaecin, pH 6.8 phosphate buffer, 45 min, 37°C, 405 nm, relative to 5 µM cecropin B = 100%, n = 3): approximately 4.8%
increase in membrane permeability, in words (E. coli strain JM83; peptide alone): only marginally increased
antibacterial activity (E. coli strain D22): antibacterial activity was demonstrated
cell morphology and surface (AFM), abaecin alone (E. coli JM83 cells): smoother than the control cells; also recorded: granules and grooves were visible although less pronounced, and there were fewer flagella
cell morphology and surface (AFM), abaecin alone (E. coli JM83 cells; listed as Abaecin): no significant impact on gross morphology
